Target: T1, Ba/F3 cell EGFR Exon20 ins NPH (Homo sapiens, UniProt P00533, INS773NPH)
T1 construct: expressed in transfected cells; host or cells: Ba/F3
Assay: Ba/F3 cell proliferation suppression, EGFR Exon20 ins NPH
Format: cell-based
Conditions: GI50 class; Ba/F3 cell line with NPH inserted at Exon20 of EGFR; 72 hours
In short: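 Growth suppression determined as GI50 following 72 h exposure across 12 concentrations up to 50 um, with viability by luminescent ATP assay (CellTiter-Glo).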

Compound	Ba/F3 (NPH) Activity
C=CC(=O)Nc1cc(Nc2cc(N3OCC[C@@H]3c3cccc4ccccc34)ncn2)c(OC)cc1N1CCC(N2CCN(C3CC3)[C@H](C)C2)CC1 [Example 155, N-(2-(4-((R)-4-cyclopropyl-3-methylpiperazine-1-yl)piperidine-1-yl)-4-methoxy-5-((6-((R)-3-(naphthalene-1-yl)isoxazolidine-2-yl)pyrimidine-4-yl)amino)phenyl)acrylamide]	A (GI50 < 50 nM)
C=CC(=O)Nc1cc(Nc2cc(N3OCC[C@@H]3c3cccc4ccccc34)ncn2)c(OC)cc1N1CCN(CC)CC1 [compound 444, N-(2-(4-ethylpiperazine-1-yl)-4-methoxy-5-((6-((R)-3-(naphthalene-1-yl)isoxazolidine-2-yl)pyrimidine-4-yl)amino)phenyl)acrylamide]	B (50 nM ≤ GI50 < 500 nM)
C=CC(=O)Nc1cc(Nc2cc(N3OCC[C@@H]3c3ccc(F)c(Cl)c3)ncn2)c(OC)cc1N1CCOCC1 [compound 824, N-(5-((6-((R)-3-(3-chloro-4-fluorophenyl)isoxazolidine-2-yl)pyrimidine-4-yl)amino)-4-methoxy-2-morpholinophenyl) acrylamide]	A (GI50 < 50 nM)
C=CC(=O)Nc1cc(Nc2cc(N3OCC[C@@H]3c3cc(F)cc(F)c3)ncn2)c(OC)cc1N1CCC(N2CCO[C@@H](C)C2)CC1 [compound 757, N-(5-((6-((R)-3-(3,5-difluorophenyl)isoxazolidine-2-yl)pyrimidine-4-yl)amino)-4-methoxy-2-(4-((S)-2-methylmorpholino)piperidine-1-yl)phenyl) acrylamide]	A (GI50 < 50 nM)
C=CC(=O)Nc1cc(Nc2cc(N3OCC[C@@H]3c3cc(F)ccc3F)ncn2)c(OC)cc1N1CCC(N2C[C@H]3C[C@@H]2CO3)CC1 [Example 259, N-(2-(4-((1R,4R)-2-oxa-5-azabicyclo[2.2.1]heptane-5-yl)piperidine-1-yl)-5-((6-((R)-3-(2,5-difluorophenyl)isoxazolidine-2-yl)pyrimidine-4-yl)amino)-4-methoxyphenyl) acrylamide]	A (GI50 < 50 nM)
C=CC(=O)Nc1cc(Nc2cc(N3OCC[C@@H]3c3cc(F)ccc3F)ncn2)c(OC)cc1N1CCN(C(C)=O)CC1 [compound 298, N-(2-(4-acetylpiperazine-1-yl)-5-((6-((R)-3-(2,5-difluorophenyl)isoxazolidine-2-yl)pyrimidine-4-yl)amino)-4-methoxyphenyl) acrylamide]	A (GI50 < 50 nM)
C=CC(=O)Nc1cc(Nc2cc(N3OCC[C@@H]3c3cc(F)cc(F)c3)ncn2)c(OC)cc1N1CCN(C2CC2)CC1 [compound 438, N-(2-(4-cyclopropylpiperazine-1-yl)-5-((6-((R)-3-(3,5-difluorophenyl)isoxazolidine-2-yl)pyrimidine-4-yl)amino)-4-methoxyphenyl) acrylamide]	A (GI50 < 50 nM)
C=CC(=O)Nc1cc(Nc2cc(N3OCC[C@@H]3c3cccc(C)c3F)ncn2)c(OC)cc1N1CCC(N2CCOCC2)CC1 [compound 856, N-(5-((6-((R)-3-(2-fluoro-3-methylphenyl)isoxazolidine-2-yl)pyrimidine-4-yl)amino)-4-methoxy-2-(4-morpholinopiperidine-1-yl)phenyl)acrylamide]	A (GI50 < 50 nM)
C=CC(=O)Nc1cc(Nc2cc(N3OCC[C@@H]3c3ccc(F)c(F)c3F)ncn2)c(OC)cc1N1CCN(CC)CC1 [compound 570, N-(2-(4-ethylpiperazine-1-yl)-4-methoxy-5-((6-((R)-3-(2,3,4-trifluorophenyl)isoxazolidine-2-yl)pyrimidine-4-yl)amino)phenyl) acrylamide]	A (GI50 < 50 nM)
C=CC(=O)Nc1cc(Nc2cc(N3OCC[C@@H]3c3ccc(C)nc3)ncn2)c(OC)cc1N1CCN(C2CCCC2)CC1 [Example 225, N-(2-(4-cyclopentylpiperazine-1-yl)-4-methoxy-5-((6-((R)-3-(6-methylpyridine-3-yl)isoxazolidine-2-yl)pyrimidine-4-yl)amino)phenyl)acrylamide]	B (50 nM ≤ GI50 < 500 nM)
C=CC(=O)Nc1cc(Nc2cc(N3OCC[C@@H]3c3ccc(F)cc3F)ncn2)c(OC)cc1N1CCC(N2CCOCC2)CC1 [compound 378, N-(5-((6-((R)-3-(2,4-difluorophenyl)isoxazolidine-2-yl)pyrimidine-4-yl)amino)-4-methoxy-2-(4-morpholinopiperidine-1-yl)phenyl)acrylamide]	A (GI50 < 50 nM)
C=CC(=O)Nc1cc(Nc2cc(N3OCC[C@@H]3c3cccc(F)c3F)ncn2)c(OC)cc1N1CC[C@@H](N(C)C)C1 [compound 927, N-(5-((6-((R)-3-(2,3-difluorophenyl)isoxazolidine-2-yl)pyrimidine-4-yl)amino)-2-((R)-3-(dimethylamino)pyrolidine-1-yl)-4-methoxyphenyl) acrylamide]	A (GI50 < 50 nM)
C=CC(=O)Nc1cc(Nc2cc(N3OCC[C@@H]3c3ccc(F)c(F)c3F)ncn2)c(OC)cc1N(C)CCN(C)C [compound 571, N-(2-((2-(dimethylamino)ethyl) (methyl)amino)-4-methoxy-5-((6-((R)-3-(2,3,4-trifluorophenyl)isoxazolidine-2-yl)pyrimidine-4-yl)amino)phenyl) acrylamide]	A (GI50 < 50 nM)
C=CC(=O)Nc1cc(Nc2cc(N3OCC[C@@H]3c3ccc(Cl)c(F)c3)ncn2)c(OC)cc1N1CCC(N2CCN(C(C)C)CC2)CC1 [compound 708, N-(5-((6-((R)-3-(4-chloro-3-fluorophenyl)isoxazolidine-2-yl)pyrimidine-4-yl)amino)-2-(4-(4-isopropylpiperazine-1-yl)piperidine-1-yl)-4-methoxyphenyl) acrylamide]	A (GI50 < 50 nM)
C=CC(=O)Nc1cc(Nc2cc(N3OCC[C@@H]3c3ccc(Cl)c(Cl)c3)ncn2)c(OC)cc1N1CCOCC1 [compound 615, N-(5-((6-((R)-3-(3,4-dichlorophenyl)isoxazolidine-2-yl)pyrimidine-4-yl)amino)-4-methoxy-2-morpholinophenyl) acrylamide]	A (GI50 < 50 nM)
C=CC(=O)Nc1cc(Nc2cc(N3OCC[C@@H]3c3ccc(Cl)c(Cl)c3)ncn2)c(OC)cc1N1C[C@H]2C[C@@H]1CN2CC [compound 676, N-(5-((6-((R)-3-(3,4-dichlorophenyl)isoxazolidine-2-yl)pyrimidine-4-yl)amino)-2-((1R,4R)-5-ethyl-2,5-diazabicyclo[2.2.1]heptane-2-yl)-4-methoxyphenyl) acrylamide]	A (GI50 < 50 nM)
C=CC(=O)Nc1cc(Nc2cc(N3OCC[C@@H]3Cc3cccc(Cl)c3C)ncn2)c(OC)cc1N1CCC(N2C[C@H]3C[C@@H]2CO3)CC1 [compound 1030, N-(2-(4-((1R,4R)-2-oxa-5-azabicyclo [2.2.1]heptane-5-yl)piperidine-1-yl)-5-((6-((S)-3-(3-chloro-2-methylbenzyl)isoxazolidine-2-yl)pyrimidine-4-yl)amino)-4-methoxyphenyl) acrylamide]	A (GI50 < 50 nM)
C=CC(=O)Nc1cc(Nc2cc(N3OCC[C@@H]3c3cccc4ccccc34)ncn2)c(OC)cc1N1CCN(C)CC1 [compound 441, N-(4-methoxy-2-(4-methylpiperazine-1-yl)-5-((6-((R)-3-(naphthalene-1-yl)isoxazolidine-2-yl)pyrimidine-4-yl)amino)phenyl) acrylamide]	B (50 nM ≤ GI50 < 500 nM)

— patent US12157730B2, “Heteroaryl derivative, method for producing same, and pharmaceutical composition comprising same as effective component” (VORONOI INC., priority 2019, dated 2024)
